Results taken from patent publication US20260234188A1, “CHEMOKINE-BINDING PEPTIDES” (Oxford University Innovation Limited, priority 2022, published 2026).
“Also recorded” adds a separate entry of the source.

system: panel of up to 42 human chemokines; test: Phage-display next generation sequencing screen of overlapping hexadecapeptide libraries, chemokines displayed on streptavidin beads; assay type: binding; details: log2E greater than 5, chemokines named by first part of UniProt Entry Name;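 further: chemokine listed when log2 fold enrichment exceeds 5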
Outline: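 Phage-display libraries of 55662 overlapping hexadecapeptides from tick and viral chemokine-binding proteins, human chemokines and chemokine receptors screened against up to 42 human chemokines, with hits found by next-generation sequencing. Peptides mapped to parent-protein position with log2 fold enrichment; regions of interest where cumulative residue log2 E exceeds the 95% upper CI of the protein median.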

Substance | Chemokines Bound
CR28001 (YVSFISTTILFLIFSV) | CCL1, CCL15,; also recorded: CCL17, CCL19,; also recorded: CCL20, CCL22,; also recorded: CCL25, CCL28,; also recorded: X3CL1, CXL10,; also recorded: CXL11, CXL14
CR28005 (YVSTLDFAIVFILMII) | CCL17, CCL18,; also recorded: CCL19, CCL20,; also recorded: CCL22, CCL28,; also recorded: X3CL1, CXL10,; also recorded: CXL11, SDF1,; also recorded: CXL13

same assay, conditions: log2E greater than 5, chemokines named by first part of UniProt Entry Name, peptides binding complement C5a (control) excluded

Substance | Chemokines Bound
EB630 (DKKVGLCLSTEYTDFS) | CXL10, SDF1,; also recorded: CXL14
EB936 (EKSDEYELFTVEYCGT) | CXL10, CXL11,; also recorded: SDF1, CXL13
EB963 (ENDKKVGLCLSTEYTD) | CXL10, CXL11, and SDF1
EB1522 (GNSTEGRCIELIGDFD) | CXL11, SDF1,; also recorded: CXL14
EB1728 (HEDGKKVGLCLSTEYT) | CXL10, SDF1,; also recorded: CXL14
EB2047 (KSDEYELFTVEYCGTN) | CXL10, CXL11,; also recorded: SDF1, CXL14
EB2053 (KSDVYELFTVEYCGTN) | CXL10, CXL11,; also recorded: CXL13
EB2359 (NDKKVGLCLSTEYTDF) | CXL10, CXL11,; also recorded: SDF1, CXL14
EB2905 (SACSGDCVCVHRDNEP) | CXL10, CXL11, and SDF1
EB3085 (SGLCLSTTYIDFSEYG) | CXL10, CXL11,; also recorded: SDF1, CXL14
EB3094 (SGNCTCYHEDGKKVGL) | CXL10, CXL11, and SDF1
EB3974 (VGLCLSTEYTDFSEYP) | CXL10, SDF1,; also recorded: CXL14
EB3975 (VGLCLSTEYTDFTKFP) | CXL10, CXL11,; also recorded: SDF1, CXL14
EDDYTAYAPLTCYFTN [HD842] | CCL1, CCL17, and CCL4, CCL5, and CCL8
EEEDDYTAYAPLTCYF [HD7] | CCL1, CCL11, and CCL15, CCL17, and CCL18, CCL20, and CCL22, CCL3, and CCL4, CCL5, and CCL8
LEEEDDYTAYAPLTCY [HD2134] | CCL1, CCL11, and CCL15, CCL17, and CCL18, CCL22, and CCL4, CCL5, and CCL8

Substance | Chemokines Bound
LTDGTACYVVERKVWD [HD2313] | CCL19, CCL20,; also recorded: CCL28
TDGTACYVVERKVWDR [HD3838] | CCL19, CCL2,; also recorded: CCL20, CCL28
VP485 (AMMLSLLIAGMSLMLG) | CCL11, CCL25, and CCL28, CCL5, and CXL11, CXL14, and IL8
VP988 (CIILLVYVYATFATKG) | CCL1, CCL8,; also recorded: X3CL1, CXL10,; also recorded: CXL11
VP1485 (DLAGLDSLTSPVYVMA) | CCL20, X3CL1, and SDF1
VP3426 (GSMMLSLLIAGMSLML) | CCL2, CCL5, and X3CL1, CXL10, and IL8
VP4048 (IILLVYVYATFATKGI) | CCL1, CCL5,; also recorded: CCL8, X3CL1,; also recorded: CXL10, CXL11,; also recorded: CXL13, IL8
VP4071 (IKAESKGSELILLDPP) | CCL17, CCL20,; also recorded: CCL22
VP5438 (LIKAAILLLAGGLAES) | CCL17, CCL20,; also recorded: CCL25, CCL28,; also recorded: CCL5, CXL10
VP6154 (MKSVLYLYILFLSCII) | CCL1, X3CL1, and CXL10, CXL11, and IL8
VP6289 (MVAVALYAYGLAFRLM) | CCL1, CCL11,; also recorded: CCL15, CCL17,; also recorded: CCL19, CCL2,; also recorded: CCL20, CCL22,; also recorded: CCL25, CCL28,; also recorded: CCL5, CXL10,; also recorded: SDF1, IL8
VP6307 (MYSLVFVILMCIPFSF) | X3CL1, CXL11,; also recorded: CXL13, IL8
VP7819 (RLEELYLTVASMFERL) | CCL1, CCL11,; also recorded: CCL17, CCL19,; also recorded: CCL2, CCL22,; also recorded: CCL28, CXL10
VP10866 (VNASIAWFFDFGACRM) | X3CL1, CXL10,; also recorded: CXL11
VP11559 (YLYILFLSCIIINGRD) | CXL10, CXL11,; also recorded: CXL13, IL8
VP11669 (YSLVFVILMCIPFSFQ) | X3CL1, CXL10,; also recorded: CXL11, IL8

system: panel of 24 biotinylated chemokines; test: Phage-display screen of HD2 NNK saturation mutagenesis library; assay type: binding, human; details: HD2 saturation mutants; chemokines on streptavidin beads; UniProt entry names
Description: FIG. 7. Exemplar results from phage display screens using saturation mutagenesis. A phage-display library was constructed using the HD2 sequence, replacing each residue encoding codon with the degenerate sequence NNK. The 16 degenerate sequences (which also encoded the parental HD2 sequence) were pooled and cloned into display phage. […] Exemplar peptides were selected such that log 2 E for at least one chemokine was greater than 5, and log 2 E for binding to control (CO5, was less than zero). […] The fold enrichment of parental HD2 is also indicated.
A phage-display library was constructed using the HD2 sequence, replacing each residue encoding codon with the degenerate sequence NNK. The 16 degenerate sequences (which also encoded the parental HD2 sequence) were pooled and cloned into display phage. […] Exemplar peptides were selected such that log 2 E for at least one chemokine was greater than 5, and log 2 E for binding to control (CO5, was less than zero). […] The fold enrichment of parental HD2 is also indicated.
A molecular level understanding of binding mechanism is needed for development of peptides as therapeutics and is usually obtained from structural analyses. As HD2 binds many chemokines this becomes a challenging task, and we explored if we could elucidate this using phage display mutagenesis. The role of each residue in HD2 for binding was examined in phage-display. A library of HD2 mutations that had NNK substituted at each residue and performed phage-display selection against a panel of 24 biotinylated chemokines, in parallel, as described in Example 7. This strategy allowed us to evaluate the impact not only of Ala substitutions, but also conservative, hydrophilic and hydrophobic substitutions, and compare with binding of parental HD2 which is also included in the library. Ala substitution removes side-chains beyond the β-carbon and can be used to infer the role of side-chain functional groups without affecting conformational flexibility of the backbone. […] These residues are within the two motifs identified previously. Other notable residues identified were Y8 and P10. We next judged the impact of Ala mutation by calculating the change in log 2 E (Δlog 2 E) between the mutant and parental HD2. A positive value of Δlog 2 E indicates increased binding, and a negative value decreased binding compared to parental HD2. […] As may be seen, the log 2 E for the parental HD2 was ~0 in these analyses indicating lack of enrichment.
Oligonucleotide pools were amplified using primers: oligo_fwd: 5′-[…] and oligo_rev2: 5′-tcgtcaccctcggcgcctcctcoggatcctccacc. Oligonucleotide PCR products were cloned into plasmid prSTOP4Nsi using NEB Builder HiFi Assembly following instructions of the manufacturer. The vector pool was used to transform electrocompetent Invitrogen ElectroMAX™ DH5α-E™ cells. Plasmid DNA was harvested by MaxiPrep (GeneJet Plasmid Maxiprep Kit) and was transformed into SS320 phage display electrocompetent cells (Lucigen), following the manufacturer's protocol, resuspended in 950 μL recovery media for each electroporation, transferred to 50 mL Falcon tubes, 100 μL 1011 CFU/mL M13KO7 helper phage (NEB) added and shaken at 37° C., 220 RPM for 1 h. 1 mL recovery culture was added to 2YT medium containing +50 ug/mL carbenicillin and 25 ug/mL kanamycin, and grown overnight at 37C, 220 rpm. Phage was precipitated from the culture supernatant by adding 22.5 mL of supernatant to 4.5 mL 20% PEG 8000/2.5 M NaCl, incubating on ice for 30 min, and centrifuging at 10,000 RPM, 4° C. for 10 min, and resuspending phage in 1 ml of PBT, followed by centrifugation at 13000 RPM, 4° C., for 10 min. […]

Substance | Chemokines Bound log2E 1-5 | Chemokines Bound log2E > 5
EEDDYEAYAPLTCYFT [HD2_E6] | CCL1, CCL11, CCL15, CCL17,; also recorded: CCL18, CCL19, CCL2, CCL22,; also recorded: CCL28, CCL3, CCL4, CCL5, CCL8,; also recorded: X3CL1, CXL10, CXL11, CXL14 | SDF1, CXL13
EEDDYSAYAPLTCYFT [HD2_S6] | CCL11, CCL15, CCL17, CCL18,; also recorded: CCL2, CCL22, CCL4, CCL5, CCL8,; also recorded: X3CL1, CXL10, SDF1, CXL13, IL8 | CCL1, CCL3
EEDDYTAYADLTCYFT [HD2_D1C] |  | CXL11
EEDDYTAYAPFTCYFT [HD2_F11] | CCL18, CXL11, CXL13, CXL14 | CCL20
EEDDYTAYAPLHCYFT [HD2_H12] | CCL15, CCL28, CCL4, CCL5 | CCL22
EEDDYTAYAPLICYFT [HD2_112] | CCL18, CCL25, CCL28, CCL4,; also recorded: X3CL1, CXL10, SDF1, CXL13,; also recorded: CXL14 | CCL19
EEDDYTAYAPLTCYFD [HD2_D16] | CCL1, CCL11, CCL17, CCL18,; also recorded: CCL2, CCL22, CCL3, CCL4, CCL5,; also recorded: CCL8, X3CL1, CXL10, CXL11,; also recorded: CXL13, CXL14 | SDF1
EEDDYTAYAPLVCYFT [HD2_V12] | CCL18, CCL25, CCL28, CCL4,; also recorded: CCL8, X3CL1, CXL10, SDF1,; also recorded: CXL13, CXL14 | CCL19
EEDDYTAYAPQTCYFT [HD2_Q11] | CCL1, CCL11, CCL15, CCL18,; also recorded: CCL22, CCL4, CCL5, CCL8 | CCL17
EEDDYTAYAPTTCYFT [HD2_T11] | CCL11, CCL17, CCL18, CCL22,; also recorded: CCL4, CCL5, CCL8 | CCL15
EEDDYTAYAPVTCYFT [HD2_V11] | CCL1, CCL11, CCL15, CCL18,; also recorded: CCL2, CCL22, CCL28, CCL3,; also recorded: CCL4, CCL5, CCL8, CXL10,; also recorded: CXL11, CXL13 | CCL17
EEDDYTAYAPYTCYFT [HD2_Y11] | CCL1, CCL11, CCL15, CCL17,; also recorded: CCL18, CCL19, CCL2, CCL20,; also recorded: CCL3, CCL4, CCL5, CCL8, X3CL1,; also recorded: CXL11, CXL13, CXL14 | CCL22

same assay, conditions: best mutation at each residue

Substance | peak log 2 E
EEDDYTAYADLTCYFT [HD2_D1C] | highest peak log 2 E at that residue
EEDDYTAYAPLICYFT [HD2_112] | highest peak log 2 E at that residue

same assay, conditions: conservative residue substitutions (Dayhoff PAM250), mutant versus parental HD2

Substance | effect on Δlog 2 E
EEDDYTAYAPLTSYFT [HD901] | significant deleterious effect

same assay, conditions: over all chemokines

Substance | mean log 2 E compared to parental HD2
DEDDYTAYAPLTCYFT [E1D] | enhancement over the parental that was not statistically significant
EDDDYTAYAPLTCYFT [E2D] | enhancement over the parental that was not statistically significant
